Assay results as given in patent US20250011300A1, “PIPERAZINYLSULFONYLARYL COMPOUNDS FOR TREATMENT OF BACTERIAL INFECTIONS” (Hoffmann-La Roche Inc., priority 2021, published 2025).
Values after ≈ are worked out from the molar mass of the structure shown.

Experiments:
[1] = biological target: Escherichia coli LpxH (UDP-2,3-diacylglucosamine hydrolase) (Escherichia coli (strain K12), UniProt P43341); experiment: 50% Inhibitory Concentration (IC50) to LpxH, UMP/CMP-Glo Glycosyltransferase Assay kit; assay type: biochemical
Sequence of Escherichia coli LpxH (UDP-2,3-diacylglucosamine hydrolase) (P43341 whole entry): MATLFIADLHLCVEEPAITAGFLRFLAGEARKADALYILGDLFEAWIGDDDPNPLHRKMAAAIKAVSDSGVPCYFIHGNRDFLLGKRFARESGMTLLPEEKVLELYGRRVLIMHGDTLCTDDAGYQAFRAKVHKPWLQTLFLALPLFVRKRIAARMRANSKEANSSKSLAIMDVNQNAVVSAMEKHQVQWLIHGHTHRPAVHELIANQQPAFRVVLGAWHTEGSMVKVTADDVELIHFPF
Outline: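 LpxH hydrolysis of UDP-2,3-diacylglucosamine to lipid X and UMP; UMP produced is converted to ATP and quantified by luciferase luminescence (UMP/CMP-Glo). Inhibition taken from reduced light output.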

E. coli (ATCC 25922) = experiment: Minimal Inhibitory Concentration (MIC) assay, E. coli; assay type: cell-based; details: Escherichia coli, ATCC25922; E. coli ATCC 25922, CAMHB, 20 hours at 35° C.; read-out: MIC E. coli ATCC 25922
Outline: (§1)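 Broth microdilution in cation-adjusted Mueller Hinton broth, inoculum 5×10^5 CFU/mL, compounds 2-fold serially diluted from 10 mM DMSO stocks. Plates incubated 20 hours at 35° C in ambient air; MIC (μg/mL) is the lowest concentration preventing visible growth.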

[2] = test system: K. pneumonia (ATCC 43816); experiment: Minimal Inhibitory Concentration (MIC) assay, K. pneumonia; assay type: cell-based; details: Klebsiella pneumoniae; K. pneumoniae ATCC43816, CAMHB, 20 hours at 35° C.; read-out: MIC K. pneumoniae ATCC43816
Outline: as §1

Row | SMILES | IC50 [1] [nM] | MIC (E. coli (ATCC 25922)) [µg/mL] | MIC [2] [µg/mL]
1 | NC1CC(=O)N(c2ccc(S(=O)(=O)N3CCN(c4cc(C(F)(F)c5ccccc5)cc(Cl)n4)CC3)cc2)C1 (stereo not drawn) [Example 73, 4-Amino-1-[4-[4-[6-chloro-4-[difluoro(phenyl)methyl]-2-pyridyl]piperazin-1-yl]sulfonylphenyl]pyrrolidin-2-one] | 32 | 0.44 (≈ 0.783 µM) | 0.44 (≈ 0.783 µM)
2 | Cc1cc(C(F)(F)c2ccccc2)nc(N2CCN(S(=O)(=O)c3ccc(N4CC(N)CC4=O)cc3)CC2)n1 (stereo not drawn) [Example 76, 4-Amino-1-[4-[4-[4-[difluoro(phenyl)methyl]-6-methyl-pyrimidin-2-yl]piperazin-1-yl]sulfonylphenyl]pyrrolidin-2-one] | 27.6 | 0.51 (≈ 0.94 µM) | 1.03 (≈ 1.9 µM)
3 | NC1CC(=O)N(c2ccc(S(=O)(=O)N3CCN(c4cc(C(F)(F)c5ccccc5)nc(Cl)n4)CC3)cc2)C1 (stereo not drawn) [Example 77, 4-Amino-1-[4-[4-[2-chloro-6-[difluoro(phenyl)methyl]pyrimidin-4-yl]piperazin-1-yl]sulfonylphenyl]pyrrolidin-2-one] | 7.1 | 0.44 (≈ 0.781 µM) | 0.44 (≈ 0.781 µM)
4 | NC1CC(=O)N(c2ccc(S(=O)(=O)N3CCN(c4cc(C(F)(F)c5ccccc5)nc(C5CC5)n4)CC3)cc2)C1 (stereo not drawn) [Example 79, 4-Amino-1-[4-[4-[2-cyclopropyl-6-[difluoro(phenyl)methyl]pyrimidin-4-yl]piperazin-1-yl]sulfonylphenyl]pyrrolidin-2-one] | 179 | 14.2 (≈ 25 µM) | > 28.4
5 | COc1cc(C(F)(F)c2ccccc2)nc(N2CCN(S(=O)(=O)c3ccc(N4CC(N)CC4=O)cc3)CC2)n1 (stereo not drawn) [Example 82, 4-Amino-1-[4-[4-[4-[difluoro(phenyl)methyl]-6-methoxy-pyrimidin-2-yl]piperazin-1-yl]sulfonylphenyl]pyrrolidin-2-one] | 247 | 6.98 (≈ 12.5 µM) | 6.98 (≈ 12.5 µM)
6 | Cc1nc(N2CCN(S(=O)(=O)c3ccc(N4C[C@H](N)CC4=O)cc3)CC2)cc(C(F)(F)c2ccccc2)n1 [Example 83, (4R)-4-Amino-1-[4-[4-[6-[difluoro(phenyl)methyl]-2-methyl-pyrimidin-4-yl]piperazin-1-yl]sulfonylphenyl]pyrrolidin-2-one] | 3.69 | 1.7 (≈ 3.13 µM) | 1.7 (≈ 3.13 µM)
7 | C=Cc1nc(N2CCN(S(=O)(=O)c3ccc(N4CC(N)CC4=O)cc3)CC2)cc(C(F)(F)c2ccccc2)n1 (stereo not drawn) [Example 84, 4-Amino-1-[4-[4-[6-[difluoro(phenyl)methyl]-2-vinyl-pyrimidin-4-yl]piperazin-1-yl]sulfonylphenyl]pyrrolidin-2-one] | 14.4 | 4.18 (≈ 7.54 µM) | 16.7 (≈ 30.1 µM)
8 | O=C1O[C@H]2CCNC[C@H]2N1c1ccc(S(=O)(=O)N2CCN(c3cc(C(F)(F)c4ccccc4)cc(Cl)n3)CC2)cc1 [Example 87, (3aR,7aS)-3-[4-[4-[6-chloro-4-[difluoro(phenyl)methyl]-2-pyridyl]piperazin-1-yl]sulfonylphenyl]-3a,4,5,6,7,7a-hexahydrooxazolo[4,5-c]pyridin-2-one] | 11.6 | 0.55 (≈ 0.91 µM) | 1.09 (≈ 1.8 µM)
9 | NCC1CN(c2ccc(S(=O)(=O)N3CCN(c4cc(C(F)(F)c5ccccc5)cc(Cl)n4)CC3)cc2)C(=O)O1 (stereo not drawn) [Example 88, 5-(Aminomethyl)-3-[4-[4-[6-chloro-4-[difluoro(phenyl)methyl]-2-pyridyl]piperazin-1-yl]sulfonylphenyl]oxazolidin-2-one] | 13.8 | 0.26 (≈ 0.45 µM) | 0.53 (≈ 0.917 µM)
10 | NC1CC(=O)N(c2ccc(S(=O)(=O)N3CCN(c4cc(C(F)(F)c5ccccn5)cc(Cl)n4)CC3)cc2)C1 (stereo not drawn) [Example 89, 4-Amino-1-[4-[4-[6-chloro-4-[difluoro(2-pyridyl)methyl]-2-pyridyl]piperazin-1-yl]sulfonylphenyl] pyrrolidin-2-one] | 60.4 | 0.88 (≈ 1.56 µM) | 0.88 (≈ 1.56 µM)
11 | NC1CC(=O)N(c2ccc(S(=O)(=O)N3CCN(c4cc(C(F)(F)c5cccnc5)cc(Cl)n4)CC3)cc2)C1 (stereo not drawn) [Example 90, 4-Amino-1-[4-[4-[6-chloro-4-[difluoro(3-pyridyl)methyl]-2-pyridyl]piperazin-1-yl]sulfonylphenyl]pyrrolidin-2-one] | 12.4 | 1.76 (≈ 3.13 µM) | 1.76 (≈ 3.13 µM)
12 | NC1CC(=O)N(c2ccc(S(=O)(=O)N3CCN(c4cc(C(F)(F)c5ccncc5)cc(Cl)n4)CC3)cc2)C1 (stereo not drawn) [Example 91, 4-Amino-1-[4-[4-[6-chloro-4-[difluoro(4-pyridyl)methyl]-2-pyridyl]piperazin-1-yl]sulfonylphenyl]pyrrolidin-2-one] | 10.7 | 1.76 (≈ 3.13 µM) | 1.76 (≈ 3.13 µM)
13 | NC1CC(=O)N(c2ccc(S(=O)(=O)N3CCN(c4cc(C(F)(F)c5cncnc5)cc(Cl)n4)CC3)cc2)C1 (stereo not drawn) [Example 92, 4-Amino-1-[4-[4-[6-chloro-4-[difluoro(pyrimidin-5-yl)methyl]-2-pyridyl]piperazin-1-yl]sulfonylphenyl]pyrrolidin-2-one] | 95.7 | 2.12 (≈ 3.76 µM) | 4.24 (≈ 7.52 µM)
14 | NC1CC(=O)N(c2ccc(S(=O)(=O)N3CCN(c4cc(C(F)(F)c5cnccn5)cc(Cl)n4)CC3)cc2)C1 (stereo not drawn) [Example 93, 4-Amino-1-[4-[4-[6-chloro-4-[difluoro(pyrazin-2-yl)methyl]-2-pyridyl]piperazin-1-yl]sulfonylphenyl]pyrrolidin-2-one] | 12.4 | 1.76 (≈ 3.12 µM) | 1.76 (≈ 3.12 µM)
15 | NC1CC(=O)N(c2ccc(S(=O)(=O)N3CCN(c4cc(C(F)(F)c5ncccn5)cc(Cl)n4)CC3)cc2)C1 (stereo not drawn) [Example 94, 4-Amino-1-[4-[4-[6-chloro-4-[difluoro(pyrimidin-2-yl)methyl]-2-pyridyl]piperazin-1-yl]sulfonylphenyl]pyrrolidin-2-one] | 186 | 3.53 (≈ 6.26 µM) | 3.53 (≈ 6.26 µM)
16 | NC1CC(=O)N(c2ccc(S(=O)(=O)N3CCN(c4cc(C(F)(F)C5CCOCC5)cc(Cl)n4)CC3)cc2)C1 (stereo not drawn) [Example 95, 4-Amino-1-[4-[4-[6-chloro-4-[difluoro(tetrahydropyran-4-yl)methyl]-2-pyridyl]piperazin-1-yl]sulfonylphenyl]pyrrolidin-2-one] | 57.9 | 0.89 (≈ 1.56 µM) | 0.89 (≈ 1.56 µM)
17 | NC1CC(=O)N(c2ccc(S(=O)(=O)N3CCN(c4cc(C(F)(F)C5CCOC5)cc(Cl)n4)CC3)cc2)C1 (stereo not drawn) [Example 96, 4-Amino-1-[4-[4-[6-chloro-4-[difluoro(tetrahydrofuran-3-yl)methyl]-2-pyridyl]piperazin-1-yl]sulfonylphenyl]pyrrolidin-2-one] | 3.6 | 3.48 (≈ 6.26 µM) | 1.74 (≈ 3.13 µM)
18 | NC1CC(=O)N(c2ccc(S(=O)(=O)N3CCN(c4cc(C(F)(F)C5COC5)cc(Cl)n4)CC3)cc2)C1 (stereo not drawn) [Example 97, 4-Amino-1-[4-[4-[6-chloro-4-[difluoro(oxetan-3-yl)methyl]-2-pyridyl]piperazin-1-yl]sulfonylphenyl]pyrrolidin-2-one] | 88.6 | 0.85 (≈ 1.57 µM) | 1.27 (≈ 2.34 µM)
19 | NC1CC(=O)N(c2ccc(S(=O)(=O)N3CCN(c4cc(C(F)(F)C5=CCOCC5)cc(Cl)n4)CC3)cc2)C1 (stereo not drawn) [Example 98, 4-Amino-1-[4-[4-[6-chloro-4-[3,6-dihydro-2H-pyran-4-yl(difluoro)methyl]-2-pyridyl]piperazin-1-yl]sulfonylphenyl]pyrrolidin-2-one] | 47.5 | 0.89 (≈ 1.57 µM) | 0.89 (≈ 1.57 µM)
20 | NC1CC(=O)N(c2ccc(S(=O)(=O)N3CCN(c4cc(C(F)(F)C5CCCOC5)cc(Cl)n4)CC3)cc2)C1 (stereo not drawn) [Example 99, 4-Amino-1-[4-[4-[6-chloro-4-[difluoro(tetrahydropyran-3-yl)methyl]-2-pyridyl]piperazin-1-yl]sulfonylphenyl]pyrrolidin-2-one] | < 3.51 | 4.01 (≈ 7.03 µM) | 0.89 (≈ 1.56 µM)
21 | NC1CC(=O)N(c2ccc(S(=O)(=O)N3CCN(c4cc(C(F)(F)C5CC6CCC(C5)O6)cc(Cl)n4)CC3)cc2)C1 (stereo not drawn) [Example 100, 4-Amino-1-[4-[4-[6-chloro-4-[difluoro(8-oxabicyclo[3.2.1]octan-3-yl)methyl]-2-pyridyl]piperazin-1-yl]sulfonylphenyl]pyrrolidin-2-one] | < 3.36 | 1.86 (≈ 3.12 µM) | 0.93 (≈ 1.56 µM)
22 | N[C@@H]1CC(=O)N(c2ccc(S(=O)(=O)N3CCN(c4cc(C(F)(F)C5C6COCC65)cc(Cl)n4)CC3)cc2)C1 (stereo partly drawn) [Example 101, (4R)-4-amino-1-[4-[4-[6-chloro-4-[difluoro(3-oxabicyclo[3.1.0]hexan-6-yl)methyl]-2-pyridyl]piperazin-1-yl]sulfonylphenyl]pyrrolidin-2-one] | 96.8 | 0.44 (≈ 0.775 µM) | 0.89 (≈ 1.57 µM)
23 | N[C@@H]1CC(=O)N(c2ccc(S(=O)(=O)N3CCN(c4cc(C(F)(F)[C@@H]5COCCO5)cc(Cl)n4)CC3)cc2)C1 [Example 102, (4R)-4-amino-1-[4-[4-[6-chloro-4-[[(2S)-1,4-dioxan-2-yl]-difluoro-methyl]-2-pyridyl]piperazin-1-yl]sulfonylphenyl]pyrrolidin-2-one] | 10.5 | 0.89 (≈ 1.56 µM) | 0.89 (≈ 1.56 µM)
24 | N[C@@H]1CC(=O)N(c2ccc(S(=O)(=O)N3CCN(c4cc(C(F)(F)[C@H]5COCCO5)cc(Cl)n4)CC3)cc2)C1 [Example 103, (4R)-4-amino-1-[4-[4-[6-chloro-4-[[(2R)-1,4-dioxan-2-yl]-difluoro-methyl]-2-pyridyl]piperazin-1-yl]sulfonylphenyl]pyrrolidin-2-one] | 3.5 | 0.89 (≈ 1.56 µM) | 0.89 (≈ 1.56 µM)
25 | N[C@@H]1CC(=O)N(c2ccc(S(=O)(=O)N3CCN(c4cc(C(F)(F)[C@@H]5CNCCO5)cc(Cl)n4)CC3)cc2)C1 [Example 104] | 8.76 | 1.01 (≈ 1.77 µM) | 2.01 (≈ 3.52 µM)
